Here are results for nine molecules from patent US20240366586A1, “METHODS AND AGENTS FOR MODULATING THE IMMUNE RESPONSE” (The Regents of the University of California, priority 2021, published 2024).

In one assay the test system is psoriasis. Nature of the assay: Treatment example: patient with psoriasis. The format is in vivo, human. Conditions: topical formulation. The protocol:
A patient with psoriasis is treated with a topical formulation of N-(2-furylmethyl)-N-[(6-methoxy-2-oxo-1H-quinolin-3-yl)methyl]-4-methyl-benzamide (Compound I-1).

The subject of another assay is lichen planus. Nature of the assay: Treatment example: patient with lichen planus. Conditions: combination with crisaborole, both administered topically. It counts as in vivo, human. The procedure:
A patient with lichen planus is treated with a combination of N-(2-furylmethyl)-N-[(6-methoxy-2-oxo-1H-quinolin-3-yl)methyl]-4-methyl-benzamide (Compound I-1) and crisaborole, both administered topically.

For assay [1], the system named is Il12b. Nature of the assay: Dual-fluorescence reporter macrophage cell line screen, lipopolysaccharide-stimulated: chromatinized Il12b-eGFP versus minimal Il12b-DsRed reporter. The format is cell-based. Conditions: lipopolysaccharide-stimulated dual-fluorescence reporter macrophage cell line. From the text:
We hypothesized that molecules that inhibit the “chromatinized” Il12b reporter but not the “minimal” Il12b reporter would offer a greater degree of Il12b inhibition selectivity.
We generated a dual-fluorescence reporter macrophage cell line having both a [Il12b]-[eGFP] chromatin-based construct and a [Il12b]-[DSred] plasmid vector. FIG. 3. We then stimulated an […] response in the cell line using lipopolysaccharide, an activator of Il12b expression, and tested a library of over 60,000 known and unknown (i.e., undescribed in the literature) small-molecule compounds.
Additional compounds in Formulas (I)-(IV) were screened following the same procedure as described above, with eGFP fluorescence as a readout for inhibition of IL12b.

Assay [2] concerns Il12b. Nature of the assay: RNA-Seq / ATAC-Seq of lipopolysaccharide-induced genes in treated macrophages. Conditions: for rank of Il12b among the most strongly inhibited lipopolysaccharide-induced genes: genes with RPKM>4 and FC>10, ranked by fold change (Max RPKM with/without compound); for selective inhibition of Il12b gene expression: RNA-Seq and ATAC-Seq analyses, macrophages. The format is cell-based. From the text: Our screening experiment identified as compounds that […]. Using ATAC-Seq and RNA-Seq analyses, we confirmed that the screen indeed identified hits that work by affecting chromatin, and confirmed that β adrenergic agonists, (and in particular β2 adrenergic agonists) are indeed exquisitely selective inhibitors of Il12b gene expression.
(§1) The inhibition of Il12b by β agonists occurs upon stimulation of macrophages with other inflammatory stimuli, including CpG DNA, double stranded RNA, and imiquimod. We confirmed that the cAMP/PKA pathway, but not the exchange factor directly activated by cAMP (EPAC) pathway, was largely responsible for mediating the Il12b suppression by 0-agonists.
FIG. 7B depicts a fold change box plot in samples treated with UK17 (3-fluoro-N′-[(5-nitro-2-thienyl)methylene]benzohydrazide (CID #6895129)), classifying lipopolysaccharide-induced genes by gene-regulation cluster as previously described in Tong A. et al., A Stringent Systems Approach Uncovers Gene-Specific Mechanisms Regulating Inflammation, Cell 165 165-179 (2016). Box plots indicate the distribution of fold change values for each cluster. Red lines are drawn at 1 and −1, indicating a 2-fold up or down-regulation of genes. Il12b is labeled in red.

The next assay relates to chronic eczema. Nature of the assay: Treatment example: patient with chronic eczema. It counts as in vivo, human. Conditions: topical formulation.
A further assay deals with vitiligo. The experiment in a line: Treatment example: patient with vitiligo. The format is in vivo, human. Conditions: topical formulation. The protocol:
A patient with vitiligo is treated with a topical formulation of 11-(5-hydroxy-2-nitrobenzyl)-7,11-diazatricyclo[7.3.1.0˜2,7˜]trideca-2,4-dien-6-one (Compound III-1).

The next assay deals with alopecia. The experiment in a line: Treatment example: patient with alopecia. The format is in vivo, human. Conditions: topical formulation also comprising apremilast.
The subject of the next assay is Behçet's disease. Nature of the assay: Treatment example: patient with Behçet's disease. It counts as in vivo, human. Conditions: topical formulation.
Assay [3] relates to imiquimod-induced psoriasiform dermatitis. The experiment in a line: Imiquimod-induced psoriasiform dermatitis model, PASI clinical scoring. It counts as in vivo. Conditions: WT mice, topical imiquimod, daily intraperitoneal injection, vs saline/PBS. From the text:
FIG. 16 depicts histology of WT mice or b1/b2 KO mice 5 days after topically applying imiquimod to their skin. Histology confirms greater thickening and scale of the skin in b1/b2 KO mice.
FIG. 19 depicts WT mice given intraperitoneal injection of the b2 selective adrenergic agonist clenbuterol or vehicle control (saline) daily in mice given topical imiquimod to induce psoriasiform dermatitis.
FIG. 20 depicts the PASI clinical scoring PBS-treated WT mice versus clenbuterol-treated WT mice.

In assay [4] the test system is Il12b. The experiment in a line: Il12b expression in human macrophages treated with PGE2 (RNA-Seq, RPKM vs DMSO). The format is cell-based.
Source text: as §1
FIG. 10 depicts a heatmap of percent expression of RPKMs as a percent of the maximum RPKM within the DMSO sample for genes with RPKMs>3 and FC>10 in at least one DMSO timepoint. The heatmap represents that for the averaged samples for each gene between Donor 0 IL34 and Donor 0 MCSF. In the left heatmap, red indicates percent expression equal to or higher than 100%. DMSO and PGE2 samples are indicated as such for timepoints 0 hr, 1 hr, 2 hr, and 6 hr. […] Here, red represents a positive difference equal to or over 100%, indicating induction, and blue representing a negative difference equal to or less than −100%, indicating inhibition. (n=2).
FIG. 11 depicts log 2 of the fold change of RPKMS after PGE2-treatment and those after DMSO treatment are shown in this scatter plot for genes with RPKMs>3 and FC>10 in at least on DMSO timepoint and this graph represents the 6-hour timepoint. […]

Consider `COc1ccc2[nH]c(=O)c(CN(Cc3ccco3)C(=O)c3ccc(C)cc3)cc2c1` [Compound I-1, N-(2-furylmethyl)-N-[(6-methoxy-2-oxo-1H-quinolin-3-yl)methyl]-4-methyl-benzamide], for which the clinical outcome in the assay with psoriasis and with lichen planus was “Resolution of symptoms” in each case.
As for `O=C(NN=Cc1ccc([N+](=O)[O-])s1)c1cccc(F)c1` [II-1, 3-fluoro-N′-[(5-nitro-2-thienyl)methylene]benzohydrazide], the figures for the “selective inhibition of the chromatinized Il12b reporter (eGFP) but not the minimal reporter (DsRed)” value in the assay with Il12b [1] and in the assay on Il12b [1] (listed as UK17) were “selective inhibitors of chromatinized Il12b” and “selective for inhibition of chromatinized Il12b”, respectively. Moreover, the “rank of Il12b among the most strongly inhibited lipopolysaccharide-induced genes” value with Il12b [2] was at most 20. Further, in the assay with chronic eczema, the clinical outcome is on record as “Resolution of symptoms”.
`O=c1cccc2n1CC1CC2CN(Cc2cc(O)ccc2[N+](=O)[O-])C1` (stereo not shown) [III-1, 11-(5-hydroxy-2-nitrobenzyl)-7,11-diazatricyclo[7.3.1.0˜2,7˜]trideca-2,4-dien-6-one]: in the assay with Il12b [1], the “selective inhibition of the chromatinized Il12b reporter (eGFP) but not the minimal reporter (DsRed)” value was “selective inhibitors of chromatinized Il12b”. The clinical outcome in the assay with vitiligo was “Resolution of vitiligo”.
Take `COc1ccc(Br)cc1/C=C/C(=O)c1ccc(OC)c(OC)c1` [IV-1, 3-(5-bromo-2-methoxyphenyl)-1-(3,4-dimethoxyphenyl)-2-propen-1-one]: the figures for the clinical outcome in the assay on alopecia and in the assay on Behçet's disease were “Resolution of alopecia” and “Resolution of disease”, respectively. For the same molecule, the “selective inhibition of the chromatinized Il12b reporter (eGFP) but not the minimal reporter (DsRed)” value in the assay on Il12b [1] was “selective inhibitors of chromatinized Il12b”. In addition, the “rank of Il12b among the most strongly inhibited lipopolysaccharide-induced genes” value with Il12b [2] is at most 20.
Consider `Cc1cc2ncn(N=Cc3ccc([N+](=O)[O-])o3)c2cc1C` [UK6, 5,6-dimethyl-N-[(5-nitro-2-furyl)methylene]-1H-benzimidazol-1-amine], for which the “selective inhibition of the chromatinized Il12b reporter (eGFP) but not the minimal reporter (DsRed)” value in the assay with Il12b [1] was “selective inhibitors of chromatinized Il12b”. Besides, in the assay on Il12b [2], the “rank of Il12b among the most strongly inhibited lipopolysaccharide-induced genes” value is on record as at most 20.
Regarding `CC(C)(C)NCC(O)c1cc(Cl)c(N)c(Cl)c1` (stereo not shown) [clenbuterol], the PASI clinical score result in assay [3] is recorded as “reduction in score”.
As to `CCCC(=O)Nc1ncnc2c1ncn2[C@@H]1O[C@@H]2COP(=O)(O)O[C@H]2[C@H]1OC(=O)CCC` [dibutyryl cyclic AMP, reference compound], the “selective inhibition of Il12b gene expression” value with Il12b [2] was “selectively inhibit IL12b expression”.
Turning to `CCOC(=O)C(=Cc1ccc2c(c1)C(=O)CC2=O)C(=O)OCC` [diethyl [(1,3-dioxo-2,3-dihydro-1H-inden-5-yl)methylene]malonate], in the assay on Il12b [1], the “selective inhibition of the chromatinized Il12b reporter (eGFP) but not the minimal reporter (DsRed)” value was “selective inhibitors of chromatinized Il12b”.
On to `CCCCC[C@H](O)/C=C/[C@H]1[C@H](O)CC(=O)[C@@H]1C/C=C\CCCC(=O)O` [prostaglandin E2, reference compound], for which the “selective inhibition of Il12b gene expression” value in the assay on Il12b [2] is “selectively inhibit IL12b expression”. Besides, the “selective inhibition of Il12b in human macrophages” value in the assay on Il12b [4] was “exquisitely selective inhibitor of Il12b”.
